Measurements reported in patent US10898580B2, “Isoquinolidinobenzodiazepines” (priority 2015, dated 2021).
In brackets after ≈: the same amount, converted by molar mass.

What was measured:
SHI = experiment: Growth inhibition by payloads, CellTiter-Glo cell viability; type: cell-based; conditions: MDR −
Protocol: (§1) The cytotoxicity of the compounds was evaluated using the CellTiter-Glo Luminescent Cell Viability Assay (Promega Cat # G7573) as described in the manufacturer's instructions (Arduengo, M., Cell Notes, 2003, 5:15-17). This assay contains a reagent that lyses cells and generates a “glow-type” luminescent signal proportional to the amount of adenosine triphosphate (ATP) present, which is a measure of cell growth.
(§2) Cells were seeded at 1000 cells per well in 50 μL of culture media into tissue culture 96-well flat-bottom plates. The perimeter wells of the plate were not used and 200 μL of media was added to the perimeter wells to prevent evaporation during incubation. 50 μL of the compound tested at twice the final concentration were then added to the wells in triplicate. Plates were incubated at 37° C., 5% CO2 for 72 hours before adding 100 μL CellTiter-Glo reagent to each well (excluding perimeter wells). Plates were then incubated at room temperature on a shaker for 10 minutes. After incubation, 100 μL of the supernatants were transferred to a solid white 96-well plate and luminescence was measured with a spectrophotometer. Percent viability was calculated based on untreated control: % viability=(treated/untreated)*100.
(§3) GI50: Concentration of compound required for 50% cell growth inhibition.
(§4) The cytotoxic activity of compounds CLT-D201, CLT-D501, CLT-D601 was tested against various cell lines in comparison with a pyrrolobenzodiazepine dimer labeled as PBD1 (structurally identical to SGD-1882, Spirogen Ltd.), having a formula: […]

OCI-AML5 = experiment: as above; type: cell-based; conditions: Homo sapiens, OCI-AML-5, MDR NA
Protocol: as §1, §2, §3, §4

HEL92.1.7 = experiment: as above; type: cell-based; conditions: Homo sapiens, HEL 92.1.7, MDR +
Protocol: as §1, §2, §3, §4

THP-1 = experiment: as above; type: cell-based; conditions: Homo sapiens, MDR −
Protocol: as §1, §2, §3, §4

HNT-34 = experiment: as above; type: cell-based; conditions: MDR +/−
Protocol: as §1, §2, §3, §4

HL-60 = experiment: as above; type: cell-based; conditions: Homo sapiens, MDR −
Protocol: as §1, §2, §3, §4

KG1 = experiment: as above; type: cell-based; conditions: Homo sapiens, KG-1, MDR +
Protocol: as §1, §2, §3, §4

TF-1 = experiment: as above; type: cell-based; conditions: Homo sapiens, MDR +
Protocol: as §1, §2, §3, §4

HL60 tumor cells = experiment: Orthotopic HL60 AML xenograft model; type: in vivo, NOD/SCID mice; conditions: 1 mg/kg, day 23 after inoculation
Protocol: Orthotopically engrafted HL60 tumor-bearing mice were treated with unconjugated C0 (1 mg/Kg) antibody and control ADC (3 mg/Kg) as compared with mice treated with C6-CLT-D202-ADC (3 mg/Kg). The percentage of human HL60 tumor cells in the bone marrow (left panel) and in the peripheral blood (right panel) is shown, the median bar and interquartile error bars are denoted for N=4-6 mice. The table (bottom) indicates the median, minimum, maximum, and interquartile percentage of human HL60 cells in the bone marrow and peripheral blood of treated mice.
Female 6-8 week-old NOD/SCID mice were sub-lethally irradiated with 2.5 Gy, and 5 million HL60 tumors were injected intravenously at one day post-irradiation into the mice. Following 6 days of tumor cell inoculation (˜0.1-1% engraftment in the bone marrow), mice were dosed 3 times, and once per week (q7DX3) with 3 mg/Kg of C6-CLT-D202 ADC or with the same amount of control C0-ADC. Following 23 days of tumor cell inoculation, bone, spleen, and peripheral blood were collected from the treated mice and total hematopoietic cells were isolated. The percentage of human cells in these tissues was determined by flow cytometry using anti-human CD33 and CD45 antibodies. Data were analyzed by Flowjo software, and plotted with Prism software.
Greater than 90% Tumor Growth Inhibition (TGI) was observed after administration with C6-CLT-D202 ADC.

Molecule | IC50 (SHI) [ng/mL] | IC50 (OCI-AML5) [ng/mL] | IC50 (HEL92.1.7) [ng/mL] | IC50 (THP-1) [ng/mL] | IC50 (HNT-34) [ng/mL] | IC50 (HL-60) [ng/mL] | IC50 (KG1) [ng/mL] | IC50 (TF-1) [ng/mL] | percentage of human HL60 cells, 25% Percentile (HL60 tumor cells; Blood) [%] | percentage of human HL60 cells, 75% Percentile (HL60 tumor cells; Blood) [%] | percentage of human HL60 cells, Median (HL60 tumor cells; Blood) [%] | percentage of human HL60 cells, Minimum (HL60 tumor cells; Blood) [%] | percentage of human HL60 cells, 25% Percentile (HL60 tumor cells; Bone marrow) [%] | percentage of human HL60 cells, 75% Percentile (HL60 tumor cells; Bone marrow) [%] | percentage of human HL60 cells, Median (HL60 tumor cells; Bone marrow) [%] | percentage of human HL60 cells, Minimum (HL60 tumor cells; Bone marrow) [%]
COc1cc2c(cc1OCCCOc1cc3c(cc1OC)C(=O)N1Cc4ccccc4CC1C=N3)N=CC1Cc3ccccc3CN1C2=O (stereo not drawn) [CLT-D201] | 0.0211 (≈ 0.0321 nM) | 0.00823 (≈ 0.0125 nM) | 0.0404 | 0.0291 (≈ 0.0443 nM) | 0.014 (≈ 0.0213 nM) | 0.002 (≈ 0.00305 nM) | 2.45 | 1.29 |  |  |  |  |  |  |  | 
COc1ccc(C2=CN3C(=O)c4cc(OC)c(OCCCOc5cc6c(cc5OC)C(=O)N5C=C(c7ccc(N)cc7)C[C@@]5(C)C=N6)cc4N=C[C@]3(C)C2)cc1 [PBD1] | 0.00547 (≈ 0.00725 nM) | 0.00208 (≈ 0.00276 nM) | 0.00387 | 0.0126 (≈ 0.0167 nM) | 0.00149 (≈ 0.00198 nM) | 0.0028 (≈ 0.00371 nM) | 0.66 | 0.447 |  |  |  |  |  |  |  | 
Palivizumab [C0] |  |  |  |  |  |  |  |  | 36.025 | 68.1 | 56.5 | 30.4 | 60.85 | 85.8 | 72.95 | 55.9
